In patent US20030162759A1, “Aldosterone blocker therapy to prevent or treat inflammation-related disorders” (priority 2000, published 2003):
Several values for one entry are separate records, joined by “and”; a condition that tells them apart may be missing. Equal entries are not always repeated. Entries after “also recorded” stand apart in the source; their conditions may differ.

Columns and labels:
[1] = test system: aldosterone + salt treated rats; assay: Assay C further aldosterone infusion study: body weight, ventricle weights, tibia length (myocardial hypertrophy); type: in vivo, rat; settings: for Ventricular weights and ventricular weight to tibia length ratios (hypertrophy): 7, 14, 30 days
Text: Assay C: Further in vivo Aldosterone Infusion Study The procedure of Assay B was expanded upon in a further study. […] Myocardial tissue from animals in each treatment group was examined after 7, 14, or 30 days of treatment. […] Lesions were preceded by the expression and progressive upregulation of proinflammatory molecules. […] Male Sprague-Dawley rats, weighing 230 to 250 g, (Harlan Sprague-Dawley Industries, Indianapolis, Ind.) were housed in a room 12-hours light/12-hours dark daily cycle at an ambient temperature of 22±1° C. (n=96). Animals were allowed one week to adjust after arrival and had free access to TEKLAD 22/5 rodent diet (Harlan TEKLAD, Madison, Wis.) and tap water until the initiation of the experiment. Prior to surgery the animals were individually weighed and placed in one of the following groups: […] Potassium chloride supplementation was added to the saline solution in order to prevent the potential hypokalemia associated with aldosterone excess. […] Louis, Mo.) was inserted subcutaneously at the nape of the neck. Aldosterone was administered at a dose of […]. […] Animals were sacrificed from each group (n=8-13) after 7, 14, or 30 days of treatment. Animals to be sacrificed after 7 or 14 days of treatment were uninephrectomized and implanted with an Alzet minipump. Animals treated for 30 days were uninephrectomized, fitted for Alzet minipumps, and implanted with radio telemetry units (model#TA11PA-C40, Data Sciences Inc., St. Paul, Minn.) according to the following procedure. […] The surgery site was clipped, scrubbed with nolvasan, and sprayed with betadine. A rostral-caudal incision was made through the skin from the base of the rib cage to the pubic region using a #11 scalpel blade. A second incision was made through the muscles of the abdominal wall to expose the peritoneal cavity. […] Organs were carefully displaced with tissue retractors in order to expose the abdominal aorta. A 1.5 cm segment just rostral to the bifurcation of the abdominal aorta into the iliac arteries was cleared of excessive connective tissue and 4-0 silk was used to make an anchor adjacent to the aorta. A microvascular clip was then placed at both ends of the cleaned region to stop excessive blood flow. Using a bent, 21 gauge needle, the abdominal aorta was penetrated. The cannula of the radio telemetry unit was inserted and stabilized in the aorta using the 4-0 silk anchor. Organs were repositioned and the telemetry unit was placed over the organs. Using a non-interrupted suture pattern with 4-0 silk, the abdominal wall was closed, and the skin was subsequently closed using a 4-0 silk in an interrupted suture pattern. […] Post-operative care included monitoring the animals on a heating pad during recovery from anesthesia until sternal recumbency was reestablished. At the cessation of each experimental time point, the animals were anesthetized with pentobarbital (65 mg/kg i.p., Sigma Chemical, St. Louis Mo.) and weighed with a Mettler PM6000 balance (Mettler-Toledo, Inc., Hightstown, N.J.). The abdominal cavity was opened to expose the abdominal aorta. A 16-gauge needle was inserted into the abdominal aorta and the animal was exsanguinated into a 12 cc syringe. The blood sample was transferred immediately into glass serum collection tubes (Terumo Medical Corp., Elkton, Md.) for drug level analysis. The samples were placed on wet ice until sample collection was complete and centrifuged for 15 min at 3000 rev/min at 4° C. Following exsanguination, hearts and kidneys were isolated, removed, rinsed in cold phosphate-buffered saline, and blotted dry.

osteopontin = assay: Assay C: osteopontin relative mRNA expression in heart (TaqMan); type: in vivo, rat; settings: for Osteopontin, Mean / Osteopontin: mRNA; for Osteopontin, Mean: group mean; for Osteopontin: individual rats
Description: The procedure of Assay B was expanded upon in a further study. […] Myocardial tissue from animals in each treatment group was examined after 7, 14, or 30 days of treatment.
Potassium chloride supplementation was added to the saline solution in order to prevent the potential hypokalemia associated with aldosterone excess.
At the time of the surgery, an Alzet 2002 osmotic minipump (Alza Corp., Palo Alto, Calif.) containing either vehicle (9% ethanol/87% propylene glycol/4% dH2O) or 1.0 mg/mL d-aldosterone (Sigma Chemical, St. Louis, Mo.) was inserted subcutaneously at the nape of the neck. Aldosterone was administered at a dose of 0.75 g/hour. […] Animals were sacrificed from each group (n=8-13) after 7, 14, or 30 days of treatment.
The fluorogenic 5′-nuclease assay (TaqMan PCR) using Applied Biosystems' 7700 Sequence Detection System (Applied Biosystems, Foster City, Calif.) allowed for real time detection/quantitation of a specific gene by monitoring the increase in fluorescence of a gene-specific, dye-labeled oligonucleotide probe. Probes for target and reference genes were labeled at the 5′-end with a 6-carboxyfluorescein (6FAM) reporter dye and at the 3′-end with a 6-carboxy-N,N,N′,N′-tetramethylrhodamine (TAMRA) quencher dye. When the probe was annealed to the target gene, fluorescence of 6FAM was prevented by the close proximity of TAMRA. The exonuclease activity of Taq polymerase released the dyes from the oligonucleotide probe by displacing the probe from the target sequence resulting in fluorescence excitation in direct proportion to the amount of target message present. Data analysis was performed using the Sequence Detection System software from Applied Biosystems.
All primers and probes were designed using Primer Express software supplied with the 7700 Sequence Detection System and synthesized by Applied Biosystems. Standard curves using 5-fold dilutions of total RNA (from 200 ng to 320 pg) were performed to determine the efficiency of each primer/probe set in the TaqMan reaction prior to the analysis of the experimental samples. Primer/probe sets were designed from known sequences of rat genes to be analyzed. All target gene values were normalized to a reference gene, constitutively expressed cyclophilin. Primer/probe set sequences can be found in Table 8.
RNA was extracted from frozen (−80° C.) rat heart tissue using the Totally RNA Isolation Kit (Ambion, Inc., Austin, Tex.). Tissue was crushed using a stainless steel mortar and pestle, which had been chilled to −80° C. and transferred to a dounce homogenizer (Kontes, Vineland, N.J.) containing 3-10 mL cold denaturation buffer. Tissue was homogenized and transferred to a sterile, 15 mL polypropylene centrifuge tube. An equal volume of phenol:chloroform:isoamyl alcohol (25:24:1) was added, samples were shaken vigorously for 1 min, and incubated on ice for at least 15 min. Samples were centrifuged for 30 min at 10,000 g. The aqueous phase was removed, 1/10 volume of a sodium acetate solution (3.0 M NaOAc pH 4.5) was added, samples were shaken or inverted for 10 seconds, and acid-phenol (premixed with isoamyl alcohol):chloroform (5:1, Ambion, Inc.) was added at an volume equivalent to the starting sample volume. Samples were shaken vigorously for 1 min, followed by a 15-min incubation on ice, and centrifuged for 30 min at 10,000 g. The aqueous phase removed and placed in a clean polypropylene tube. An equal volume of isopropanol (Sigma, St. Louis, Mo.) was added and the samples were mixed and incubated overnight at −20° C. The samples were centrifuged for 30 min at 10,000 g, the supernatant was removed and the RNA pellet was resuspended in DNAse/RNAse-free water. Samples were frozen at −80° C. for at least 2 hours, thawed on wet ice, and diluted for quantitation.

[2] = group Mean row of Table 9.11, 7 days of treatment
[3] = individual rats, 7 days of treatment, eplerenone 100 mg/kg/day, listed as Aldosterone + salt
[4] = mean ± SEM after 30 days of treatment, eplerenone 100 mg/kg/day

## C[C@]12CCC(=O)C=C1CC[C@@H]1[C@@H]2[C@@H](O)C[C@]2(C=O)[C@@H](C(=O)CO)CC[C@@H]12 [aldosterone]
[1]; eplerenone 100 mg/kg/day
  Ventricular weights and ventricular weight to tibia length ratios (hypertrophy): Significant left and right ventricular hypertrophy
[1]; [2]
  Final Body Weight: 277 g
  Right Ventricle Weight/Tibia Length: 48 mg/cm
[1]; [3]
  Left Ventricle Weight: 620 mg
  Left Ventricle Weight/Tibia Length: 200 mg/cm
  Right Ventricle Weight/Tibia Length: 48 mg/cm and 49 mg/cm and 57 mg/cm and 47 mg/cm (2×) and 44 mg/cm and 41 mg/cm and 51 mg/cm and 55 mg/cm
[1]; [4]
  Left Ventricle Weight: 910 ± 29 mg
  Right Ventricle Weight: 192 ± 8 mg
  Right Ventricle Weight/Tibia Length: 49 ± 2 mg/cm
  Tibia Length: 3.9 ± 0.02 cm
osteopontin; 14 days of treatment
  Osteopontin, Mean: 6.56 AU
osteopontin; 30 days of treatment
  Osteopontin, Mean: 13.27 AU
osteopontin; 7 days of treatment, listed as Aldosterone + salt
  Osteopontin: 0.84 AU and 0.95 AU and 1.08 AU

## COC(=O)[C@@H]1CC2=CC(=O)CC[C@]2(C)[C@@]23O[C@@H]2C[C@@]2(C)[C@@H](CC[C@@]24CCC(=O)O4)[C@H]13 [eplerenone, Pregn-4-ene-7,21-dicarboxylic acid, 9,11-epoxy-17-hydroxy-3-oxo-, γ-lactone, methyl ester, (7α, 11α, 17β) -]
[1]; eplerenone 100 mg/kg/day
  Ventricular weights and ventricular weight to tibia length ratios (hypertrophy): did not impact absolute ventricular weights or ventricular weight to tibia length ratios
[1]; Table 9.13, 30-day protocol, eplerenone 100 mg/kg/day, individual rats, listed as Eplerenone + aldosterone + salt
  Right Ventricle Weight/Tibia Length: 50 mg/cm
[1]; day 30, eplerenone 100 mg/kg/day
  Decrease in body weight induced by aldosterone+salt: significantly attenuated
[1]; individual rats, 7 days of treatment, eplerenone 100 mg/kg/day, listed as Eplerenone + aldosterone + salt
  Final Body Weight: 306 g and 295 g (2×) and 277 g and 276 g
[1]; [4]
  Left Ventricle Weight/Tibia Length: 240 ± 9 mg/cm
  Right Ventricle Weight/Tibia Length: 51 ± 2 mg/cm
osteopontin; 7 days of treatment
  Osteopontin, Mean: 0.75 AU
osteopontin; 14 days of treatment
  Osteopontin, Mean: 2.94 AU
osteopontin; 30 days of treatment
  Osteopontin, Mean: 2.59 AU
osteopontin; 7 days of treatment, listed as Eplerenone + aldosterone + salt
  Osteopontin: 0.54 AU and 0.52 AU and 0.27 AU and 0.60 AU and 0.96 AU and 0.75 AU
osteopontin; 14 days of treatment, listed as Eplerenone + aldosterone + salt
  Osteopontin: 1.00 AU and 0.77 AU and 1.59 AU and 0.72 AU and 0.99 AU
osteopontin; 30 days of treatment, listed as Eplerenone + aldosterone + salt
  Osteopontin: 1.28 AU
osteopontin; time course 7, 14, 30 days, eplerenone 100 mg/kg/day
  Osteopontin mRNA expression in myocardium: significantly reduced; also recorded: inhibition of early time-course expression of myocardial osteopontin
